Laboratory results from PubChem BioAssay (NCI).
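Step 1: Grow cells in 96-well plates. Step 2: Expose to compound for 48 hours at 5 concentrations. Step 3: Interpolate endpoints linearly; if unreached, use highest concentration. The concentration for full growth arrest is given as TGI.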

Columns and labels:
Assay in all cases: inhibition of tumour cell growth, NCI panel, 48 h
DMS 273 small cell lung = test system: DMS 273 small cell lung
ACHN renal = test system: ACHN renal
SW-620 colon = test system: SW-620 colon
CCRF-CEM leukemia = test system: CCRF-CEM leukemia
SK-MEL-28 melanoma = test system: SK-MEL-28 melanoma
M14 melanoma = test system: M14 melanoma
NCI-H226 lung = test system: NCI-H226 lung
NCI-H460 lung = test system: NCI-H460 lung
UACC-62 melanoma = test system: UACC-62 melanoma
HL-60(TB) leukemia = test system: HL-60(TB) leukemia
CAKI-1 renal = test system: CAKI-1 renal
IGROV1 ovarian = test system: IGROV1 ovarian
SF-295 CNS = test system: SF-295 CNS
786-0 renal = test system: 786-0 renal
SF-268 CNS = test system: SF-268 CNS
SR leukemia = test system: SR leukemia
RPMI-8226 leukemia = test system: RPMI-8226 leukemia

| Compound | TGI (DMS 273 small cell lung) [µM] | TGI (ACHN renal) [µM] | TGI (SW-620 colon) [µM] | TGI (CCRF-CEM leukemia) [µM] | TGI (SK-MEL-28 melanoma) [µM] | TGI (M14 melanoma) [µM] | TGI (NCI-H226 lung) [µM] | TGI (NCI-H460 lung) [µM] | TGI (UACC-62 melanoma) [µM] | TGI (HL-60(TB) leukemia) [µM] | TGI (CAKI-1 renal) [µM] | TGI (IGROV1 ovarian) [µM] | TGI (SF-295 CNS) [µM] | TGI (786-0 renal) [µM] | TGI (SF-268 CNS) [µM] | TGI (SR leukemia) [µM] | TGI (RPMI-8226 leukemia) [µM] |
| --- | --- | --- | --- | --- | --- | --- | --- | --- | --- | --- | --- | --- | --- | --- | --- | --- | --- |
| COc1ccc(NC(=O)c2oc3cc(O)ccc3c(=O)c2C)c([N+](=O)[O-])c1 | > 100 | > 100 | > 100 | > 100 | > 100 | > 100 | > 100 | > 100 | > 100 | > 100 | > 100 | > 100 | > 100 | > 100 | > 100 | > 100 | – |
| CCCCCCCCCCCCCCCCCCOCC(C[N+]1(C)CCC(O)CC1)OCC (configuration not stated) | 4.91 | – | 35.5 | 5.55 | 33.5 | 23.4 | 21.4 | – | 19.7 | 8.42 | 21.1 | 21 | 17.9 | 19.4 | 15 | 3.73 | 11.5 |
| CCOC(=O)C1=C(O)C(=O)c2ccoc2C1=O | > 100 | > 100 | > 100 | > 100 | > 100 | > 100 | > 100 | > 100 | > 100 | > 100 | > 100 | > 100 | > 100 | > 100 | > 100 | > 100 | > 100 |
| COc1ccc(/C=N/N=C(\N)NO)cc1F | 84.4 | 45.3 | > 100 | > 100 | > 100 | 33.3 | 41.4 | > 100 | 36.3 | > 100 | 46.5 | > 100 | 87.6 | 48.5 | 66.7 | 86.5 | > 100 |
| O=C(Nc1ccc([N+](=O)[O-])cc1[N+](=O)[O-])C(=O)C(C(=O)c1ccc(Cl)c(Cl)c1)C1OC(=O)c2ccccc21 (configuration not stated) | > 100 | > 100 | 54.6 | 95 | – | – | 36 | – | 36 | 85.3 | > 100 | 84.7 | 40.7 | 41.5 | 76.3 | > 100 | > 100 |
| CC1(C2COC(=O)C2)SCCCS1 (configuration not stated) | > 100 | > 100 | > 100 | > 100 | > 100 | > 100 | > 100 | > 100 | > 100 | > 100 | > 100 | > 100 | > 100 | > 100 | > 100 | > 100 | – |
| O=NN1CCN=C1c1ccc([N+](=O)[O-])cc1 | > 100 | > 100 | > 100 | – | > 100 | > 100 | > 100 | > 100 | > 100 | > 100 | > 100 | > 100 | > 100 | > 100 | > 100 | > 100 | > 100 |
| NCCCC(N=Cc1nc(-c2ccccc2)oc1O)C(=O)O (configuration not stated) | > 100 | > 100 | > 100 | > 100 | > 100 | > 100 | > 100 | > 100 | > 100 | > 100 | – | > 100 | > 100 | > 100 | > 100 | > 100 | > 100 |
